# Results as given in the supplement of paper PMC8882468.
# System: HCI-016 (organoid from a triple-negative breast cancer xenograft)
# Assay: CTG-3D luminescence at 96 h relative to day-0 seeding control (ratio to day 0); higher = more growth / less cytotoxicity; PDxO 3D drug screen (set 2), 96 h, CTG-3D normalised to day-0 seeding control.
# Settings: 0.005 µM; days in culture: 305
row,SMILES,CTG-3D luminescence at 96 h
1,CCOc1ccn(-c2ccc(F)cc2)c(=O)c1C(=O)Nc1ccc(Oc2ccnc(N)c2Cl)c(F)c1 [ASLAN002],3.65
2,C[C@@H](Nc1cc(F)cc(F)c1)c1cc(C(=O)N(C)C)cc2c(=O)cc(N3CCOCC3)oc12 [AZD-8186],2.53
3,COc1cccc2c1C(=O)c1c(O)c3c(c(O)c1C2=O)C[C@@](O)(C(=O)CO)C[C@@H]3O[C@H]1C[C@H](N)[C@@H](O)[C@H](C)O1 [epirubicin],3.17
4,CC(=O)c1c(C)c2cnc(Nc3ccc(N4CCNCC4)cn3)nc2n(C2CCCC2)c1=O [palbociclib],2.81
5,O=C(c1cc(Cc2n[nH]c(=O)c3ccccc23)ccc1F)N1CCN(C(=O)C2CC2)CC1 [olaparib],2.09

# Same assay, conditions: 0.005 µM; days in culture: 327
row,SMILES,CTG-3D luminescence at 96 h
1,CCOc1ccn(-c2ccc(F)cc2)c(=O)c1C(=O)Nc1ccc(Oc2ccnc(N)c2Cl)c(F)c1 [ASLAN002],1.32
2,C[C@@H](Nc1cc(F)cc(F)c1)c1cc(C(=O)N(C)C)cc2c(=O)cc(N3CCOCC3)oc12 [AZD-8186],1.53
3,COc1cccc2c1C(=O)c1c(O)c3c(c(O)c1C2=O)C[C@@](O)(C(=O)CO)C[C@@H]3O[C@H]1C[C@H](N)[C@@H](O)[C@H](C)O1 [epirubicin],0.985
4,CC(=O)c1c(C)c2cnc(Nc3ccc(N4CCNCC4)cn3)nc2n(C2CCCC2)c1=O [palbociclib],1.84
5,O=C(c1cc(Cc2n[nH]c(=O)c3ccccc23)ccc1F)N1CCN(C(=O)C2CC2)CC1 [olaparib],1.45

# Same assay, conditions: 0.005 µM; days in culture: 341
row,SMILES,CTG-3D luminescence at 96 h
1,CCOc1ccn(-c2ccc(F)cc2)c(=O)c1C(=O)Nc1ccc(Oc2ccnc(N)c2Cl)c(F)c1 [ASLAN002],2.09
2,C[C@@H](Nc1cc(F)cc(F)c1)c1cc(C(=O)N(C)C)cc2c(=O)cc(N3CCOCC3)oc12 [AZD-8186],2.07
3,COc1cccc2c1C(=O)c1c(O)c3c(c(O)c1C2=O)C[C@@](O)(C(=O)CO)C[C@@H]3O[C@H]1C[C@H](N)[C@@H](O)[C@H](C)O1 [epirubicin],2.11
4,CC(=O)c1c(C)c2cnc(Nc3ccc(N4CCNCC4)cn3)nc2n(C2CCCC2)c1=O [palbociclib],1.74
5,O=C(c1cc(Cc2n[nH]c(=O)c3ccccc23)ccc1F)N1CCN(C(=O)C2CC2)CC1 [olaparib],2.18

# Same assay, conditions: 0.005 µM; days in culture: 397
row,SMILES,CTG-3D luminescence at 96 h
1,CCOc1ccn(-c2ccc(F)cc2)c(=O)c1C(=O)Nc1ccc(Oc2ccnc(N)c2Cl)c(F)c1 [ASLAN002],1.99
2,C[C@@H](Nc1cc(F)cc(F)c1)c1cc(C(=O)N(C)C)cc2c(=O)cc(N3CCOCC3)oc12 [AZD-8186],1.49
3,COc1cccc2c1C(=O)c1c(O)c3c(c(O)c1C2=O)C[C@@](O)(C(=O)CO)C[C@@H]3O[C@H]1C[C@H](N)[C@@H](O)[C@H](C)O1 [epirubicin],1.7
4,CC(=O)c1c(C)c2cnc(Nc3ccc(N4CCNCC4)cn3)nc2n(C2CCCC2)c1=O [palbociclib],1.48
5,O=C(c1cc(Cc2n[nH]c(=O)c3ccccc23)ccc1F)N1CCN(C(=O)C2CC2)CC1 [olaparib],1.17

# Same assay, conditions: 0.1 µM; days in culture: 305
row,SMILES,CTG-3D luminescence at 96 h
1,CCOc1ccn(-c2ccc(F)cc2)c(=O)c1C(=O)Nc1ccc(Oc2ccnc(N)c2Cl)c(F)c1 [ASLAN002],4.35
2,C[C@@H](Nc1cc(F)cc(F)c1)c1cc(C(=O)N(C)C)cc2c(=O)cc(N3CCOCC3)oc12 [AZD-8186],4.16
3,COc1cccc2c1C(=O)c1c(O)c3c(c(O)c1C2=O)C[C@@](O)(C(=O)CO)C[C@@H]3O[C@H]1C[C@H](N)[C@@H](O)[C@H](C)O1 [epirubicin],1.79
4,CC(=O)c1c(C)c2cnc(Nc3ccc(N4CCNCC4)cn3)nc2n(C2CCCC2)c1=O [palbociclib],3.01
5,O=C(c1cc(Cc2n[nH]c(=O)c3ccccc23)ccc1F)N1CCN(C(=O)C2CC2)CC1 [olaparib],3.71

# Same assay, conditions: 0.1 µM; days in culture: 327
row,SMILES,CTG-3D luminescence at 96 h
1,CCOc1ccn(-c2ccc(F)cc2)c(=O)c1C(=O)Nc1ccc(Oc2ccnc(N)c2Cl)c(F)c1 [ASLAN002],1.46
2,C[C@@H](Nc1cc(F)cc(F)c1)c1cc(C(=O)N(C)C)cc2c(=O)cc(N3CCOCC3)oc12 [AZD-8186],2.67
3,COc1cccc2c1C(=O)c1c(O)c3c(c(O)c1C2=O)C[C@@](O)(C(=O)CO)C[C@@H]3O[C@H]1C[C@H](N)[C@@H](O)[C@H](C)O1 [epirubicin],1.49
4,CC(=O)c1c(C)c2cnc(Nc3ccc(N4CCNCC4)cn3)nc2n(C2CCCC2)c1=O [palbociclib],1.67
5,O=C(c1cc(Cc2n[nH]c(=O)c3ccccc23)ccc1F)N1CCN(C(=O)C2CC2)CC1 [olaparib],1.31

# Same assay, conditions: 0.1 µM; days in culture: 341
row,SMILES,CTG-3D luminescence at 96 h
1,CCOc1ccn(-c2ccc(F)cc2)c(=O)c1C(=O)Nc1ccc(Oc2ccnc(N)c2Cl)c(F)c1 [ASLAN002],2.6
2,C[C@@H](Nc1cc(F)cc(F)c1)c1cc(C(=O)N(C)C)cc2c(=O)cc(N3CCOCC3)oc12 [AZD-8186],1.7
3,COc1cccc2c1C(=O)c1c(O)c3c(c(O)c1C2=O)C[C@@](O)(C(=O)CO)C[C@@H]3O[C@H]1C[C@H](N)[C@@H](O)[C@H](C)O1 [epirubicin],0.986
4,CC(=O)c1c(C)c2cnc(Nc3ccc(N4CCNCC4)cn3)nc2n(C2CCCC2)c1=O [palbociclib],2.25
5,O=C(c1cc(Cc2n[nH]c(=O)c3ccccc23)ccc1F)N1CCN(C(=O)C2CC2)CC1 [olaparib],2.46

# Same assay, conditions: 0.1 µM; days in culture: 397
row,SMILES,CTG-3D luminescence at 96 h
1,CCOc1ccn(-c2ccc(F)cc2)c(=O)c1C(=O)Nc1ccc(Oc2ccnc(N)c2Cl)c(F)c1 [ASLAN002],2.59
2,C[C@@H](Nc1cc(F)cc(F)c1)c1cc(C(=O)N(C)C)cc2c(=O)cc(N3CCOCC3)oc12 [AZD-8186],1.76
3,COc1cccc2c1C(=O)c1c(O)c3c(c(O)c1C2=O)C[C@@](O)(C(=O)CO)C[C@@H]3O[C@H]1C[C@H](N)[C@@H](O)[C@H](C)O1 [epirubicin],0.704
4,CC(=O)c1c(C)c2cnc(Nc3ccc(N4CCNCC4)cn3)nc2n(C2CCCC2)c1=O [palbociclib],2.7
5,O=C(c1cc(Cc2n[nH]c(=O)c3ccccc23)ccc1F)N1CCN(C(=O)C2CC2)CC1 [olaparib],1.75
